According to patent US20110105408A1, “THERAPEUTIC PEPTIDES” (INTER-K PTY LIMITED, priority 2008, published 2011):
“Also recorded” adds a separate entry of the source. One block for each molecule: values may come before it. No end group written: not given here.

What was measured:
HT29 colon cancer cells [1] = experiment: Cell proliferation (MTT) assay, HT29 cells; format: cell-based, human; details: for inhibition of proliferation of HT29 cells (MTT): 48 hours culture with dendrimer
Description: (§1) Single cell suspensions of viable trypsinised cells were seeded into 96-well tissue culture plates at a density of 2×10^3 cells per well in a volume of 100 μl of a suitable culture media with foetal calf serum (FCS) (e.g., Dulbecco's Modified Eagles Medium (DMEM), with 10% v/v FCS, glutamine, Hepes, and antibiotics). A set of triplicate wells was prepared for each concentration of the peptide dendrimer being tested. Additional sample wells containing untreated cells or media alone were set up in each treatment plate and processed in parallel as reference controls. A zero-time plate of untreated cells and media-alone wells was simultaneously prepared and an MTT assay carried out on this plate at the time of test peptide dendrimer addition to treatment plates. All plates were cultured for 24 hours before addition of the test dendrimer. To prepare the MTT solution 100 mg of MTT (3-(4,5-dimethylthiazolyl-2)-2,5-diphenyltetrazolium bromide) (Cat #. M-128, Sigma, St Louis Mo.), is mixed with 20 ml of PBS at pH 7.4. The resulting solution is filter sterilized (0.2 μM syringe filter) and stored at 4° C. protected from light until use. MTT substrate is cleaved in growing cells to yield a water insoluble salt. After solubilisation of the salt crystals, a coloured product is produced the measurement of which allows quantitation of the proliferative activity of the cultured cells.
Appropriate concentrations of the test dendrimer were prepared by dilution of freshly prepared sterile 1 mM stock solutions into cell culture media to give a final well volume of 200 μl containing 10% v/v FCS. The zero-plate was processed by addition of MTT at this time. Cell culture was continued for a further 24 or 48 hours before addition of 20 μl of MTT in PBS (5 mg/ml, 0.2 um filter sterilised). The MTT cell proliferation assay measures cell proliferation rate and, in instances where cell viability is compromised, the assay indicates a comparative reduction in cell viability. After a 3 hour incubation in the presence of MTT (5% CO2 in air at 37° C.), plates were centifuged at 450 g for 5 minutes, supernatant removed by gentle suction and precipitated tetrazolium salt resuspended into 150 μl DMSO:glycine (0.1 M glycine, 0.1 M NaCl pH 10.5) (6:1 v/v) solution. Plates were gently vortexed to complete solubilisation of crystalline material and absorbance was read at 540-550 nm using a microplate reader. Sample data were processed to determine the comparative growth of treated samples relative to untreated controls.
HT29 cells were cultured for 48 hours in the presence of selected dendrimers and proliferation of the cells was assessed by MTT assay essentially as described in Example 1.2. The results were calculated as percentage proliferation of control cells (not treated with dendrimer).

[2] = tested on: MKN45 gastric carcinoma cells; experiment: Cell proliferation (MTT) assay, MKN45 cells; format: cell-based; details: 48 hours incubation
Description: as §1, with “To prepare the MTT solution 100 mg of MTT (3-(4,5-dimethylthiazolyl-2)-2,5-diphenyltetrazolium bromide) (Cat #. M-128, Sigma, St Louis Mo.), is mixed with 20 ml of PBS at pH 7.4. The resulting solution is filter sterilized (0.2 μM syringe filter) and stored at 4° C. protected from light until use. MTT substrate is cleaved in growing cells to yield a water insoluble salt.” left out
(§2) Appropriate concentrations of the test dendrimer were prepared by dilution of freshly prepared sterile 1 mM stock solutions into cell culture media to give a final well volume of 200 μl containing 10% v/v FCS. […] Plates were gently vortexed to complete solubilisation of crystalline material and absorbance was read at 540-550 nm using a microplate reader. […]

[3] = tested on: MCF-7 breast cancer cells; experiment: Cell proliferation (MTT) assay, MCF-7 cells; format: cell-based; details: 48 hours incubation
Description: as §1, with “To prepare the MTT solution 100 mg of MTT (3-(4,5-dimethylthiazolyl-2)-2,5-diphenyltetrazolium bromide) (Cat #. M-128, Sigma, St Louis Mo.), is mixed with 20 ml of PBS at pH 7.4. The resulting solution is filter sterilized (0.2 μM syringe filter) and stored at 4° C. protected from light until use. MTT substrate is cleaved in growing cells to yield a water insoluble salt.” left out
as §2

[4] = tested on: DU145 prostate cancer cells; experiment: Cell proliferation (MTT) assay, DU145 cells; format: cell-based; details: 48 hours incubation
Description: as §1, with “To prepare the MTT solution 100 mg of MTT (3-(4,5-dimethylthiazolyl-2)-2,5-diphenyltetrazolium bromide) (Cat #. M-128, Sigma, St Louis Mo.), is mixed with 20 ml of PBS at pH 7.4. The resulting solution is filter sterilized (0.2 μM syringe filter) and stored at 4° C. protected from light until use. MTT substrate is cleaved in growing cells to yield a water insoluble salt.” left out
as §2

[5] = tested on: phospho-ERK in HT29 cells; experiment: Phospho-ERK ELISA (FACE ERK1/2 kit) in HT29 cells; format: cell-based, human
Description: (§3) HT29 cells were harvested using 0.5% trypsin EDTA (Invitrogen) and 5000 cells were resuspended into 200 μL, and added to each well of a clear NUNC tissue culture treated 96 well plate (NUNC). Cells were seeded in DMEM media (Invitrogen) supplemented with 10% v/v foetal calf serum (FCS, Invitrogen), 1% L-Glutamine (Invitrogen) and 2% 1M HEPES buffer solution (Invitrogen). Cells were then incubated overnight at 37° C. The following day, the growth medium was replaced with 100 μL of serum-free DMEM supplemented with 1% L-glutamine and 2% 1M HEPES buffer solution, and incubated for a further 24 hours at 37° C. Dendrimers were added to test wells in serum free medium to provide final concentrations of the dendrimers ranging from 0.1-20 μLA. The total volume of each well was 200 uL, and cells were incubated at 37° C. for times ranging from 5 minutes to 4 hours. In those studies in which cells were subjected to stimulation by serum, 22 μL FCS (10% v/v final concentration) was added to wells for the final ten minutes of the culture period at 37° C. Serum-free media (SFM) only (22 μL) was added to non-serum stimulated cells.
Phospho-ERK levels were determined using the FACE ERK1/2 ELISA kit according to the manufacturer's instructions (Active Motif, kit obtained from Australian Biosearch, WA, Australia). Briefly, media was replaced and cells fixed with 4% formaldehyde in PBS, and after a 1 hour with antibody blocking buffer (supplied), the primary phospho-ERK or total-ERK antibody was added and incubated overnight at 4° C. Antibody dilution buffer only was added to control test wells containing no primary antibody. The next day, HRP-conjugated secondary antibody was added for one hour before plates were developed and the absorbance measured at 450 nm using a Labsystems Multiskan EX microplate reader (Labsystems, Thermo Labsystems, UK).
The effectiveness of the peptide dendrimer IK248 described in Example 2 in inhibiting growth factor mediated activation of ERK in HT29 cancer cells (i.e., (FCS stimulated) compared to various agents comprising the polypeptide RSKAKNPLYR (SEQ ID No. 6) coupled to different peptide facilitator moieties for facilitating passage of the polypeptide across the plasma cell membrane into the cytosol of the cells was evaluated. Phospho-ERK levels in the cells following treatment with 5 μM IK248 (Dend 8) for 1 hour or polypeptide-facilitator moiety agents (each at 5 μM for the same duration) were measured essentially as described in Example 1.3. The facilitator moieties utilised were the signal peptide fragment AAVALLPAVLLALLA (SEQ ID No. 16), the TAT-G peptide GRKKRRQRRRPPQG (SEQ ID No. 17), a modified pentratin sequence Tr-Pen RRQKWKKG (SEQ ID No. 18), and the penetratin peptide RQIKIWFQNRRMKWKKCS—SC (SEQ ID No. 19) wherein S—S indicates a disulphide bridge between the adjacent cysteine residues.
The peptide RSKAKNPLYR (SEQ ID. No. 6) or peptide dendrimers of the type illustrated in FIG. 3 comprising lysine branching units presenting either 8 (IK248) or 10 (IK248B) monomer units of the peptide RSKAKNPLYR (SEQ ID No. 6) were utilised in this study. Phospho-ERK levels were evaluated by ELISA utilising an Active Motif FACE ERK1/2 ELISA kit (Australian Biosearch, WA, Australia) as described in Example 1.3.

total ERK in HT29 cells = experiment: Total-ERK ELISA in HT29 cells; format: cell-based, human; details: HT29 cells treated with the dendrimer
Description: as §3, with “In those studies in which cells were subjected to stimulation by serum, 22 μL FCS (10% v/v final concentration) was added to wells for the final ten minutes of the culture period at 37° C. Serum-free media (SFM) only (22 μL) was added to non-serum stimulated cells.” left out
Phospho-ERK levels were determined using the FACE ERK1/2 ELISA kit according to the manufacturer's instructions (Active Motif, kit obtained from Australian Biosearch, WA, Australia). […] The next day, HRP-conjugated secondary antibody was added for one hour before plates were developed and the absorbance measured at 450 nm using a Labsystems Multiskan EX microplate reader (Labsystems, Thermo Labsystems, UK).

HT29 colon cancer cells [6] = experiment: Cell proliferation (MTT) assay, HT29 cells; format: cell-based, human; details: 24 hour incubation period

Molecule: Dend8 β3: peptide dendrimer presenting 8 monomer units of the β3 based peptide RARAKNPLYK (SEQ ID No. 7) (also: dendrimer of 8 peptide copies)
inhibition of proliferation of HT29 cells (MTT) (HT29 colon cancer cells [1]): inhibited proliferation of the HT29 cancer cells

Molecule: Dend8 β5: peptide dendrimer presenting 8 monomer units of the β5 based peptide RSRARNPLYR (SEQ ID No. 8) (also: dendrimer of 8 peptide copies)
inhibition of proliferation of HT29 cells (MTT) (HT29 colon cancer cells [1]): inhibited proliferation of the HT29 cancer cells; also recorded: more effective

Molecule: CC(C)C[C@H](NC(=O)[C@@H]1CCCN1C(=O)[C@H](CC(N)=O)NC(=O)[C@H](CCCCN)NC(=O)[C@H](C)NC(=O)[C@H](CCCCN)NC(=O)[C@H](CO)NC(=O)[C@@H](N)CCCNC(=N)N)C(=O)N[C@@H](Cc1ccc(O)cc1)C(=O)N[C@@H](CCCNC(=N)N)C(=O)NCCCC[C@H](NC(=O)[C@H](CCCNC(=N)N)NC(=O)[C@H](Cc1ccc(O)cc1)NC(=O)[C@H](CC(C)C)NC(=O)[C@@H]1CCCN1C(=O)[C@H](CC(N)=O)NC(=O)[C@H](CCCCN)NC(=O)[C@H](C)NC(=O)[C@H](CCCCN)NC(=O)[C@H](CO)NC(=O)[C@@H](N)CCCNC(=N)N)C(=O)NCCCC[C@H](NC(=O)[C@H](CCCCNC(=O)[C@H](CCCNC(=N)N)NC(=O)[C@H](Cc1ccc(O)cc1)NC(=O)[C@H](CC(C)C)NC(=O)[C@@H]1CCCN1C(=O)[C@H](CC(N)=O)NC(=O)[C@H](CCCCN)NC(=O)[C@H](C)NC(=O)[C@H](CCCCN)NC(=O)[C@H](CO)NC(=O)[C@@H](N)CCCNC(=N)N)NC(=O)[C@H](CCCNC(=N)N)NC(=O)[C@H](Cc1ccc(O)cc1)NC(=O)[C@H](CC(C)C)NC(=O)[C@@H]1CCCN1C(=O)[C@H](CC(N)=O)NC(=O)[C@H](CCCCN)NC(=O)[C@H](C)NC(=O)[C@H](CCCCN)NC(=O)[C@H](CO)NC(=O)[C@@H](N)CCCNC(=N)N)C(=O)NCCCC[C@H](NC(=O)[C@H](CCCCNC(=O)[C@H](CCCCNC(=O)[C@H](CCCNC(=N)N)NC(=O)[C@H](Cc1ccc(O)cc1)NC(=O)[C@H](CC(C)C)NC(=O)[C@@H]1CCCN1C(=O)[C@H](CC(N)=O)NC(=O)[C@H](CCCCN)NC(=O)[C@H](C)NC(=O)[C@H](CCCCN)NC(=O)[C@H](CO)NC(=O)[C@@H](N)CCCNC(=N)N)NC(=O)[C@H](CCCNC(=N)N)NC(=O)[C@H](Cc1ccc(O)cc1)NC(=O)[C@H](CC(C)C)NC(=O)[C@@H]1CCCN1C(=O)[C@H](CC(N)=O)NC(=O)[C@H](CCCCN)NC(=O)[C@H](C)NC(=O)[C@H](CCCCN)NC(=O)[C@H](CO)NC(=O)[C@@H](N)CCCNC(=N)N)NC(=O)[C@H](CCCCNC(=O)[C@H](CCCNC(=N)N)NC(=O)[C@H](Cc1ccc(O)cc1)NC(=O)[C@H](CC(C)C)NC(=O)[C@@H]1CCCN1C(=O)[C@H](CC(N)=O)NC(=O)[C@H](CCCCN)NC(=O)[C@H](C)NC(=O)[C@H](CCCCN)NC(=O)[C@H](CO)NC(=O)[C@@H](N)CCCNC(=N)N)NC(=O)[C@H](CCCNC(=N)N)NC(=O)[C@H](Cc1ccc(O)cc1)NC(=O)[C@H](CC(C)C)NC(=O)[C@@H]1CCCN1C(=O)[C@H](CC(N)=O)NC(=O)[C@H](CCCCN)NC(=O)[C@H](C)NC(=O)[C@H](CCCCN)NC(=O)[C@H](CO)NC(=O)[C@@H](N)CCCNC(=N)N)C(=O)NCCC(N)=O [IK248]
inhibition of growth/proliferation of MKN45 gastric carcinoma cells [2]: inhibited growth/proliferation
inhibition of growth/proliferation of MCF-7 breast cancer cells [3]: inhibited growth/proliferation
inhibition of growth/proliferation of DU145 prostate cancer cells [4]: inhibited growth/proliferation
greater inhibition of activated phospho-ERK than the closest test agent (TAT-G RSKAKNPLYR) ([5]; 5 μM, 1 hour, FCS stimulated HT29 cells): at least 30%
inhibition of activated phospho-ERK ([5]; 5 μM, 4 hours, FCS stimulated HT29 cells (data not shown)): approx. 95%
phospho-ERK level in FCS stimulated cells ([5]; HI FCS stimulated, 20 μM, 1 hour incubation): lower than in non-FCS stimulated cells treated with the dendrimer, but remained higher than phospho-ERK basal levels in control cells not treated with the dendrimer
basal phospho-ERK level relative to control cells ([5]; not FCS stimulated, 1 μM-10 μM, 4 hr incubation): incease relative to control cells
basal phospho-ERK level compared to control cells, time course ([5]; not FCS stimulated, 5 μM, 5, 10 and 30 minutes, and 1 hour): markedly increased phospho-ERK levels at all time points evaluated
total ERK levels (total ERK in HT29 cells): remained essentially unaffected
inhibition of proliferation of HT29 colon cancer cells (MTT) (HT29 colon cancer cells [6]): inhibit proliferation of HT29 colon cancer cells; also recorded: substantially more effective at inhibiting cell growth/proliferation than the peptide dendrimer comprising 4 monomers of the polypeptide

Molecule: Dend 4: peptide dendrimer comprising 4 monomer units of the polypeptide RSKAKNPLYR (SEQ ID No. 6) (also: dendrimer of 4 peptide copies)
inhibition of proliferation of HT29 colon cancer cells (MTT) (HT29 colon cancer cells [6]): inhibit proliferation of HT29 colon cancer cells

Molecule: Dend 9 10(4): dendrimer presenting 9 monomer units of the peptide RSKAKNPLYR (SEQ ID No. 6) (also: dendrimer of 9 peptide copies)
inhibition of proliferation of HT29 cells (MTT) (HT29 colon cancer cells [1]): Dend 12 was more effective than Dend 9

IC50 (HT29 colon cancer cells [1]; 48 hours, MTT): 1000 nM
Molecule: dendrimer presenting 12 monomer units of the peptide RSKAKNPLYR (SEQ ID No. 6) (also: dendrimer of 12 peptide copies) [Dend 12 10(4)]
inhibition of proliferation of HT29 cells (MTT) (HT29 colon cancer cells [1]): more effective than Dend 9
dendrimer concentration required for total kill (HT29 colon cancer cells [1]; HT29 cells, 48 hours, MTT): 10 µM
